Molecules are shown by their SMILES.

For one experiment, the target named is T1, OleTJE (Jeotgalicoccus sp. ATCC 8456, UniProt E9NSU2).
T1 construct: gene JEM45_03820; recombinant; purified enzyme or lyophilized cell-free lysate powder
T1 sequence (E9NSU2 1-422): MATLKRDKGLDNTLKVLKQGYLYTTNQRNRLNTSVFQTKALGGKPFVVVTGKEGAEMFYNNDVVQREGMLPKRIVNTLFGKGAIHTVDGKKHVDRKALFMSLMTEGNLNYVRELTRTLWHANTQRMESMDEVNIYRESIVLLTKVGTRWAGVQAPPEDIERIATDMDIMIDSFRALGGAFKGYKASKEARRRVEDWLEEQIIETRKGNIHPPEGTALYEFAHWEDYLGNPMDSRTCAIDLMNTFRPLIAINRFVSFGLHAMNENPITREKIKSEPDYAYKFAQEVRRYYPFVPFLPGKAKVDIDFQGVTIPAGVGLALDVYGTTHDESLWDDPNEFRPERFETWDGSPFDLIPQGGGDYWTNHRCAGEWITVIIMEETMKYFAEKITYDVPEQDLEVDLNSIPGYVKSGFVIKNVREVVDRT
The experiment is described as follows: GC of styrene / styrene oxide formation in coupled reaction with purified P450-BM3 SO5. In kind it is biochemical. Conditions: no external H2O2, H2O2 from SO5 uncoupling.

For a further experiment, the target named is T2, ANEH (Aspergillus niger, UniProt Q9UR30).
T2 construct: gene hyl1; recombinant, co-expressed with P450-BM3 SO5 under the same T7 promoter; lyophilized cell-free lysate powder
T2 sequence (Q9UR30 1-398): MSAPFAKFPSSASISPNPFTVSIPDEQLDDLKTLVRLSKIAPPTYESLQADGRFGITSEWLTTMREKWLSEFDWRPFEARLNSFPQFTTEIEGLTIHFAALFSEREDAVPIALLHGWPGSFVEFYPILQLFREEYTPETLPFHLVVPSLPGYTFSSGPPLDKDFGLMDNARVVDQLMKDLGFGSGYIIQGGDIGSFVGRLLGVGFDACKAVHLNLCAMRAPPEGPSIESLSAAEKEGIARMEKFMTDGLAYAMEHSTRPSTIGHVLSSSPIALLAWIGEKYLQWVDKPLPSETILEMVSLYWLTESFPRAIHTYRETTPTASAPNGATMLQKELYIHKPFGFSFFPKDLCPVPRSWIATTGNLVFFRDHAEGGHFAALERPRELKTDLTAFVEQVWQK
The experiment is described as follows: one-pot cascade with lyophilized lysate powders, conversion to diol. Conditions: 50 mM PBS pH 8.0, 300 mM NaCl; epoxide formed in situ by P450-BM3 SO5. In kind it is biochemical.

Consider `O=C(O)CCc1ccccc1` [1a, 3-phenyl propionic acid], for which, on OleTJE, the “GC of styrene / styrene oxide formation in coupled reaction with purified P450-B” value is “purified OleTJE was mixed with the purified SO5 variant, and tested in the model reaction”.

Turning to `c1ccc([C@@H]2CO2)cc1` [(R)-styrene oxide], on ANEH, the “one-pot cascade with lyophilized lysate powders, conversion to diol” value is on record as “selective hydrolytic ring-opening of the respective epoxide catalyzed by the epoxide hydrolase”.

Consider `C=Cc1ccccc1` [styrene], for which the “GC of styrene / styrene oxide formation in coupled reaction with purified P450-B” value at OleTJE was “OleT-Catalyzed Reaction B Supplies the Necessary Styrene from 3-Phenyl Propionic Acid”.

The values are drawn from paper PMC6727617, “Exploiting Designed Oxidase–Peroxygenase Mutual Benefit System for Asymmetric Cascade Reactions” (Journal of the American Chemical Society, 2019).
